# From ChEMBL document CHEMBL5661975, “Discovery and pharmacologic characterization of CP-724,714, a selective ErbB2 tyrosine kinase inhibitor” (Cancer Res, 2007)
# Activity calls are given as the source filed them. The calls are words filed in the database; no cut-off is given here.
# What was measured:
# BT-474 [1] = assay: Antitumor activity against human BT-474 expressing erbB2 cells xenografted bearing female athymic nu-nu CD-1 mouse assessed as inhibition in tumor growth at 1 mg/kg, po bid administration and measured at 40 day relative to control; type: functional; conditions: BT-474, 960 h
# [2] = biological target: Receptor tyrosine-protein kinase erbB-2 (Homo sapiens, UniProt P04626); assay: Inhibition of human erbB2 intracellular domain transfected in mouse NIH3T3 cells assessed as potency reduction in autophosphorylation of the chimera erbB2 incubated for 2 hrs in the presence of EGF stimulation by westernblot analysis; type: cell-based
# [3] = Antiproliferative activity against human SUM190PT cells assessed as inhibition of cell growth; type: functional, cell-based
# BT-474 [4] = assay: Antitumor activity against human BT-474 high expressing erbB2 cells xenografted bearing female athymic nu-nu CD-1 mouse assessed as inhibition in tumor growth at 100 mg/kg, po bid administrated for 8 to 40 days relative to control; type: functional; conditions: time 8-40 day
# BT-474 [5] = assay: Induction of cell cycle arrest in Her2-amplified human BT-474 cells overexpressing erbB2 assessed as reduction in S phase at 1 micromol/L incubated for 24 hrs by flow cytometry analysis relative to control; type: functional; parameters: scale not given: the % may be the effect or the level left; conditions: dose 1 µmol/L, at 1 µM
# MCF7 = assay: Antiproliferative activity against human MCF7 cells assessed as inhibition of cell growth; type: functional, cell-based
# MDA-MB-453 [6] = assay: Antitumor activity against human MDA-MB-453 expressing erbB2 cells xenografted bearing female athymic nu-nu CD-1 mouse assessed as inhibition in tumor growth at 25 mg/kg, po bid administration and measured at 29 day relative to control; type: functional; conditions: MDA-MB-453, 696 h
# T47D = assay: Antiproliferative activity against human T47D cells assessed as inhibition of cell growth; type: functional, cell-based
# SK-BR-3 = assay: Inhibition of colony formation in human SK-BR-3 cells overexpressing erbB2 assessed as decrease in colony formation at 3 micromol/L by methanolic crystal violet staining relative to control; type: functional; conditions: dose 3 µmol/L
# BT-474 [7] = assay: Antitumor activity against human BT-474 expressing erbB2 cells xenografted bearing female athymic nu-nu CD-1 mouse assessed as tumor regrowth at 30 mg/kg, po bid administration and measured at 40 day; type: functional, organism-based
# BT-474 [8] = assay: Antitumor activity against human BT-474 expressing erbB2 cells xenografted bearing female athymic nu-nu CD-1 mouse assessed as reduction in tumor erbB2 receptor phosphorylation at 1 to 30 mg/kg, po bid administration and measured at 40 day by ELISA method relative to control; type: functional; parameters: scale not given: the % may be the effect or the level left; conditions: dose 1-30 mg/kg
# MDA-MB-157 = assay: Antiproliferative activity against human MDA-MB-157 cells assessed as inhibition of cell growth; type: functional, cell-based
# BT-474 [9] = assay: Antitumor activity against human BT-474 expressing erbB2 cells xenografted bearing female athymic nu-nu CD-1 mouse assessed as reduction in tumor erbB2 receptor phosphorylation at 100 mg/kg, po bid administration and measured at 40 day by ELISA method relative to control; type: functional; parameters: scale not given: the % may be the effect or the level left
# EFM-19 = assay: Antiproliferative activity against human EFM-19 cells assessed as inhibition of cell growth; type: functional, cell-based
# ZR-75-1 = assay: Antiproliferative activity against human ZR-75-1 cells assessed as inhibition of cell growth; type: functional, cell-based
# FRE [10] = assay: Antitumor activity against human erbB2 transfected FRE cells xenografted bearing female athymic nu-nu CD-1 mouse assessed as increase in cleaved caspase-3 cells at 100 mg/kg, po administration and measured at 8 hrs by immunohistochemical analysis; type: functional, organism-based
# UACC-812 = assay: Antiproliferative activity against human UACC-812 cells assessed as inhibition of cell growth; type: functional, cell-based
# ZR-75-30 = assay: Antiproliferative activity against human ZR-75-30 cells assessed as inhibition of cell growth; type: functional, cell-based
# BT-474 [11] = assay: Antitumor activity against human BT-474 expressing erbB2 cells xenografted bearing female athymic nu-nu CD-1 mouse assessed as tumor regression at 100 mg/kg, po bid administration and measured at 9 day relative to control; type: functional
# MDA-MB-453 [12] = assay: Antitumor activity against human MDA-MB-453 high expressing erbB2 cells xenografted bearing female athymic nu-nu CD-1 mouse assessed as inhibition in tumor regression at 100 mg/kg, po bid administrated for 8 to 40 days relative to control; type: functional; conditions: time 8-40 day
# BT-474 [13] = assay: Induction of cell cycle arrest in Her2-amplified human BT-474 cells overexpressing erbB2 assessed as increase in G1 phase at 1 micromol/L incubated for 24 hrs by flow cytometry analysis relative to control; type: functional; conditions: dose 1 µmol/L, at 1 µM
# MDA-MB-453 [14] = assay: Antiproliferative activity against human MDA-MB-453 cells assessed as inhibition of cell growth; type: functional, cell-based
# [15] = Antitumor activity against human erbB2 transfected FRE cells xenografted bearing female athymic nu-nu CD-1 mouse assessed as reduction in tumor erbB2 receptor phosphorylation, po administration by ELISA method; type: functional, organism-based
# FRE [16] = assay: Antitumor activity against human erbB2 transfected FRE cells xenografted bearing female athymic nu-nu CD-1 mouse assessed as tumor erbB2 receptor phosphorylation at 25 mg/kg, po administration and measured at 4 hrs by ELISA method; type: functional, organism-based
# [17] = Antitumor activity against human erbB2 transfected FRE cells xenografted bearing female athymic nu-nu CD-1 mouse assessed as inhibition in tumor growth at 50 mg/kg, po QD administrated for 8 to 40 days relative to control; type: functional; conditions: time 8-40 day
# FRE [18] = assay: Antitumor activity against human erbB2 transfected FRE cells xenografted bearing female athymic nu-nu CD-1 mouse assessed as inhibition in tumor volume at 6.25 to 100 mg/kg, po QD administrated for 8 to 40 days; type: functional, organism-based; conditions: dose 6.25-100 mg/kg, time 8-40 day
# BT-474 [19] = assay: Antitumor activity against human BT-474 high expressing erbB2 cells xenografted bearing female athymic nu-nu CD-1 mouse assessed as reduction in tumor phospho-Erk level at 30 to 100 mg/kg, po after 0.5 hrs administration by western blot analysis relative to control; type: functional; parameters: scale not given: the % may be the effect or the level left; conditions: dose 30-100 mg/kg
# BT-474 [20] = assay: Antitumor activity against human BT-474-erbB2 cells xenografted bearing female athymic nu-nu CD-1 mouse assessed as reduction in tumor erbB2 receptor phosphorylation, po administration by ELISA method; type: functional, organism-based
# BT-474 [21] = assay: Antitumor activity against human BT-474 cells expressing erbB2 xenografted bearing female athymic nu-nu CD-1 mouse assessed as inhibition in tumor growth at 100 mg/kg, po bid administration and measured at 40 day relative to control; type: functional; conditions: BT-474, 960 h
# [22] = Toxicity in human erbB2 transfected FRE cells xenografted bearing female athymic nu-nu CD-1 mouse assessed as mortality at 50 mg/kg, po QD administrated for 8 to 40 days; type: organism-based; conditions: in vivo, time 8-40 day
# BT-474 [23] = assay: Antitumor activity against human BT-474 high expressing erbB2 cells xenografted bearing female athymic nu-nu CD-1 mouse assessed as inhibition in tumor regression at 100 mg/kg, po bid administrated for 8 to 40 days relative to control; type: functional; conditions: time 8-40 day
# BT-474 [24] = assay: Antiproliferative activity against human BT-474 cells assessed as inhibition of cell growth; type: functional, cell-based
# [25] = Cmax in human erbB2 transfected FRE cells xenografted bearing female athymic nu-nu CD-1 mouse at 50 mg/kg, po QD administrated for 8 to 40 days by liquid chromatography-tandem mass spectrometry analysis; type: ADME, organism-based; conditions: in vivo, time 8-40 day
# Sequence of Receptor tyrosine-protein kinase erbB-2 (P04626 whole entry, the tested form may be a part): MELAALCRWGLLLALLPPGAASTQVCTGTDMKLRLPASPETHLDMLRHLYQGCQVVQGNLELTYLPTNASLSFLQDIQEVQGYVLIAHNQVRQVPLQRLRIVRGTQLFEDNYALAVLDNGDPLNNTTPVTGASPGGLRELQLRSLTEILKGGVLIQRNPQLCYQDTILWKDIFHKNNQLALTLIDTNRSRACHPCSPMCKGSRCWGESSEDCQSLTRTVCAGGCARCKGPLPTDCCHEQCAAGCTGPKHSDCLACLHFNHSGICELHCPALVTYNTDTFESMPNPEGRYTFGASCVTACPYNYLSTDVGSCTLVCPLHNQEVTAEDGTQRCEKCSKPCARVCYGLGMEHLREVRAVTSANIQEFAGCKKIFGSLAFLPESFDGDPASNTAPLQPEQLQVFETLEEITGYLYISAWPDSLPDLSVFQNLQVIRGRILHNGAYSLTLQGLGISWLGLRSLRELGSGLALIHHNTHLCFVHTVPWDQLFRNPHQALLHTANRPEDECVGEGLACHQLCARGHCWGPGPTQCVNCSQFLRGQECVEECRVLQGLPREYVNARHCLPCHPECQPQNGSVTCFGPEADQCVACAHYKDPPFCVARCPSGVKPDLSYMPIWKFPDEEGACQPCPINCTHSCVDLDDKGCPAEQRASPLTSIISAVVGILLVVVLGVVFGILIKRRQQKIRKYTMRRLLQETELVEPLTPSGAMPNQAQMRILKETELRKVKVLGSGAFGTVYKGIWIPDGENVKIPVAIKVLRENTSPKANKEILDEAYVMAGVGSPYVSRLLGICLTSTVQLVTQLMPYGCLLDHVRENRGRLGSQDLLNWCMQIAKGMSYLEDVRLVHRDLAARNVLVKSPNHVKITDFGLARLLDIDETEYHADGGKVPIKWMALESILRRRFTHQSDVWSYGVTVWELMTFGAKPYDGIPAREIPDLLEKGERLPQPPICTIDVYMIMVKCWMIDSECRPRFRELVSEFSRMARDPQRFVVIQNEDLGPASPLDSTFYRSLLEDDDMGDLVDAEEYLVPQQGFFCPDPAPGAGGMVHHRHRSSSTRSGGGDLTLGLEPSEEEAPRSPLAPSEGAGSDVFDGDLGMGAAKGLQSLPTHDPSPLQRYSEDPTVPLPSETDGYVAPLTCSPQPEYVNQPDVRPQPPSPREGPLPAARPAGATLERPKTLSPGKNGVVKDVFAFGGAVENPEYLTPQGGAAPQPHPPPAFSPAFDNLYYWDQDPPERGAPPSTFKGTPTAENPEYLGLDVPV
structure (smiles),measurement,setting,value
COCC(=O)NC/C=C/c1ccc2ncnc(Nc3ccc(Oc4ccc(C)nc4)c(C)c3)c2c1 [CP-724714],inhibition in vivo at 1 mg/kg,BT-474 [1],41%
same,IC50,[2],32 nM
same,IC50,[3],710 nM
same,inhibition in vivo at 100 mg/kg,BT-474 [4],83%
same,Activity,BT-474 [5],3.2%
same,IC50,MCF7,9800 nM
same,inhibition in vivo at 25 mg/kg,MDA-MB-453 [6],~19%
same,IC50,T47D,2400 nM
same,inhibition at 3 µM,SK-BR-3,> 80%
same,Activity,BT-474 [7],Active
same,Activity,BT-474 [8],10%
same,IC50,MDA-MB-157,> 10000 nM
same,Activity,BT-474 [9],81%
same,IC50,EFM-19,> 10000 nM
same,IC50,ZR-75-1,> 10000 nM
same,Activity,FRE [10],Active
same,IC50,UACC-812,1900 nM
same,IC50,ZR-75-30,1500 nM
same,Activity,BT-474 [11],~6%
same,inhibition in vivo at 100 mg/kg,MDA-MB-453 [12],83%
same,Activity,BT-474 [13],83%
same,IC50,MDA-MB-453 [14],2500 nM
same,EC50,[15],1 µg/mL
same,Activity,FRE [16],inactive
same,inhibition in vivo at 50 mg/kg,[17],~50%
same,inhibition,FRE [18],Active
same,Activity,BT-474 [19],~75%
same,EC50,BT-474 [20],0.77 µg/mL
same,inhibition in vivo at 100 mg/kg,BT-474 [21],100%
same,Activity,[22],Non-Toxic
same,inhibition in vivo at 100 mg/kg,BT-474 [23],83%
same,IC50,BT-474 [24],250 nM
same,Cmax,[25],4500 ng/mL
